IC50 data for 5 molecules are collected here from patent publication US20110112149A1, “EPOTHILONE ANALOGUES, THEIR PHARMACEUTICAL COMPOSITIONS, THEIR USE AND THEIR PREPA RATIONS” (priority 2008, published 2011).

Common to all, as to type: cell-based
One assay deals with NCI-H460 (Lung Cancer). Nature of the assay: SRB cytotoxicity assay, NCI-H460. Conditions: cells cultured 3 days with compound, read-out: Activity against cancer cell lines (IC50), NCI-H460 (Lung Cancer). From the text:
(§1) The compounds of the present invention can be screened by conventional assays known in the art. For example, cytotoxicity of the compound can be determined according to SRB assay described in Skehan et. al., J. Natl. Cancer Inst. 1990, 82: 1107, which is incorporated herein by reference.
(§2) In the study, sulforhodamine B (SRB) was used for screening the selective compounds of the present invention according to their anti-tumor activity on four different tumor cell lines. In SRB assay, the cultured cells were trypsinized, then counted and diluted to a suitable concentration (5000-7500 cells/100 μl) with a culture medium. The cells were inoculated into a 96-well microtiter plate at 100 μl suspension/well. The test compounds were diluted in the culture medium to 2×1000 nM˜2×0.001 nM, and added to each well in 100 μl after 20 hours. The cells were then cultured for 3 days, fixed with 100 μl 10% trichloroacetic acid at 4° C. for 1 hour, and then stained with 0.2% SRB/1% acetic acid at room temperature for 20 min. The unbound dye was rinsed with 1% acetic acid. The bound dye was dissolved with 200 μl 10 mM Tris-base. The amount of the bound dye was calculated from OD value detected at wavelength of 515 nm. The amount of the bound dye was in direct proportion to the total amount of cell proteins. The data was analyzed with Kaleida Graph Program, and the half inhibitory concentration (IC50) was calculated. Epothilones D and B were detected in parallel for comparison. The results of the cytotoxic experiments on the tested selective compounds according to the present invention are shown as follows. The other compounds according to the present invention may also be detected with the similar method.

For a further assay, the system named is MCF-7 (Breast Cancer). Description: SRB cytotoxicity assay, MCF-7. Conditions: cells cultured 3 days with compound, read-out: Activity against cancer cell lines (IC50), MCF-7 (Breast Cancer).
Text: as §1, §2

Assay [1] concerns NCI/ADR-RES (MDR Breast Cancer). Description: SRB cytotoxicity assay, NCI/ADR-RES. Conditions: cells cultured 3 days with compound, read-out: Activity against cancer cell lines (IC50), NCI/ADR-RES (MDR Breast Cancer).
Text: as §1, §2

The next assay concerns SF-268 (Glioma). Description: SRB cytotoxicity assay, SF-268. The following applies: cells cultured 3 days with compound, read-out: Activity against cancer cell lines (IC50), SF-268 (Glioma).
Text: as §1, §2

[2] abbreviates: Homo sapiens, NCI/ADR-RES, 72 h.

Where two headings read alike, the source gives them in different places.

As for `C/C(=C\c1csc(C)n1)C(N)C1OC(=O)CC(O)C(C)(C)C(=O)C(C)C(O)C(C)CCCC2(C)OC12` (centres unmarked) [HH3], the IC50 in the assay with NCI-H460 (Lung Cancer) (Homo sapiens, NCI-H460, 72 h) was 0.5 nM; in the assay with MCF-7 (Breast Cancer) (Homo sapiens, MCF7, 72 h) it was 1 nM; in assay [1] (setting [2]), 3 nM; in the assay with SF-268 (Glioma) (Homo sapiens, SF-268, 72 h), 1 nM.

On to `C/C(=C\c1csc(C)n1)[C@@H]1C[C@@H]2O[C@]2(C)CCC[C@H](C)[C@H](O)[C@@H](C)C(=O)C(C)(C)[C@@H](O)CC(=O)O1` [Epo B, Epothilone B, reference compound], for which the IC50 with NCI-H460 (Lung Cancer) came out at 0.7 nM; in the assay with MCF-7 (Breast Cancer), 0.5 nM; in assay [1], 5 nM; with SF-268 (Glioma), 0.8 nM.

Consider `C/C1=C/C[C@@H](/C(C)=C/c2csc(C)n2)OC(=O)C[C@H](O)C(C)(C)C(=O)[C@H](C)[C@@H](O)[C@@H](C)CCC1` [Epo D, Epothilone D, reference compound], for which the IC50 with NCI-H460 (Lung Cancer) came out at 17 nM; in the assay on MCF-7 (Breast Cancer) it was 13 nM; in assay [1] it was 42 nM; in the assay on SF-268 (Glioma), 18 nM.

Regarding `Cc1nc2cc(C3OC(=O)CC(O)C(C)(C)C(=O)C(C)C(O)C(C)CCCC4(C)OC34)ccc2s1` (centres unmarked) [HH8], the IC50 with NCI-H460 (Lung Cancer) (Homo sapiens, NCI-H460, 72 h) was 0.2 nM; with MCF-7 (Breast Cancer) (Homo sapiens, MCF7, 72 h), 0.5 nM; in assay [1] (setting [2]), 0.5 nM; with SF-268 (Glioma) (Homo sapiens, SF-268, 72 h) it was 1 nM.

Regarding `C/C(=C\c1csc(C)n1)C1OC(=O)CC(O)C(C)(C)C(=O)C(C)C(O)C(C)CCCC2(C)OC12` (centres unmarked) [HH6], the IC50 turned out to be 0.5 nM in the assay with NCI-H460 (Lung Cancer) (Homo sapiens, NCI-H460, 72 h); 0.2 nM in the assay with MCF-7 (Breast Cancer) (Homo sapiens, MCF7, 72 h); 1 nM in assay [1] (setting [2]); 1 nM with SF-268 (Glioma) (Homo sapiens, SF-268, 72 h).
